Source: US6642031B2, “Microorganisms with ability to degrade indole and enzymes therefrom” (Genencor International, Inc., priority 1995, dated 2003)
Several values for one entry are separate records, joined by “and”; a condition that tells them apart may be missing. Equal entries are not always repeated. Where two headings read alike, the source gives them in different places.

Assays:
[1] = tested on: indole oxidase; assay: Cell-free oxygen uptake in WW2 indole-induced cell extract; format: biochemical, Pseudomonas putida; settings: for Oxygen Uptake: 1.82 mg/ml cell extract protein, 1 mM NADH, pH 7.5, corrected for uptake without substrate
[2] = tested on: indole oxidase; assay: Substrate depletion assay with cell extract, GC/MS and visible spectrum; format: biochemical, Pseudomonas putida
Method: Substrate depletion assays. Substrate depletion assays were carried out in 1.5 ml to 10 ml reactions containing crude SCF, 4.0 mM NADH or NADPH, 2.0 μM FAD, and 1.0 mM indole in 50 mM Tris-HCl (pH 7.5 or 8.0). Substrate and product concentrations were determined by incubating the reactions for the specified period of time with shaking at 250 rpm, extracting 1.0 ml of the aqueous reaction with ethyl acetate and analyzing the extract by gas chromatography-mass spectrometry (GC/MS) described below.
GC/MS was carried out with a Hewlett-Packard model 5890 gas chromatograph equipped with a Hewlett-Packard DB-5 capillary column (inside diameter 0.2 mm by 25 m) and a Hewlett-Packard model 5971 mass selective detector (electron impact ionization 70 eV). The column temperature was programmed from 50 to 325° C. at 10° C./min with a helium flow of 12 cm/s. Temperatures of the injection port and transfer line were 250 and 280° C., respectively.
After indole was completely consumed the reaction mixture was diluted into dimethylformamide (DMF) and the visible spectrum of the resultant blue solution was measured.

[3] = tested on: indole oxidation activity in strain WW2 crude cell extract; assay: Cell-free indole-dependent NAD(P)H oxidation, cofactor requirements (spectrophotometric); format: biochemical, Pseudomonas putida
Method: Spectrophotometric assavs. Cell-free, indole-dependent NADH oxidation was measured spectrophotometrically with a Hewlett-Packard 8452A diode array spectrophotometer. The reactions (1.0 ml volume) contained crude soluble cytosolic fraction (SCF), 3.0 mM NADH, 2.0 mM indole and 50 mM Tris-HCl (pH 7.5). The reactions were initiated by addition of NADH and the initial rates were corrected for background NADH oxidation rates, which were measured in the absence of indole. NADPH was substituted for NADH to compare its ability to serve as an electron donor for indole oxidation activity.
Cofactor requirement of the indole oxidizing activity in the crude soluble cytosolic fraction was investigated in spectrophotometric assays as described in Example 6.

[4] = tested on: Strain WW2 whole cells; assay: Whole cell oxygen uptake with indole and related substrates (Clark electrode oxygraph); format: cell-based, Pseudomonas putida; settings: for Relative % (oxygen uptake rate) / Oxygen Uptake: substrate 0.6 mM; for Relative % (oxygen uptake rate): indole-dependent rate defined as 100%; for Oxygen Uptake: whole cells 4.5 h after indole induction, corrected for uptake without substrate
Method: (§1) Carbon utilization of WW2 was determined by its ability to grow on alternate carbon sources. The bulk of these were determined by Biolog assay. […] In addition, substrate-dependent oxygen consumption of whole resting cells was measured by oxygraph assay as described in Example 11.
(§2) Indole oxidation activity in whole cells was routinely determined by measuring oxygen uptake rates with a Biological Oxygen Monitor (Yellow Springs Instrument Co., model 5300, Ohio) equipped with a Clark electrode. Reactions were carried out in a stirred, 1.5 ml reaction chamber at 25° C. Washed cells of strain WW2 suspended in 50 mM Tris-HCl (pH 7.5) to an A600 of 2.0 were pre-equilibrated at 25° C. before their addition to the reaction chamber. After recording the endogenous oxygen uptake rate, indole or other substrates (100 mM in dimethylformamide) were added to a final concentration of 0.3 to 1 mM. […] Reported rates were corrected for oxygen uptake observed in the absence of substrate. In the case of indoxyl, the reported rate was also corrected for the spontaneous oxygen consumption rate of indoxyl oxidation in the absence of indole-induced cells.

[5] = tested on: Pseudomonas putida strain WW2; assay: Growth on carbon sources in MSB liquid culture or agar plates; settings: for support of growth as carbon source (words): MSB liquid medium or agar plates
Method: Cultivation of the organism. Growth was measured turbidimetrically at 600 nm. […] Additional potential carbon sources were assessed in MSB supplemented with the carbon alternate source (0.2% (w/v) unless specified otherwise) or on plates provided with volatile substrates in the vapor phase. Growth was also conducted in 14 L fermenters in the fed batch mode. […] To study enzyme activity of indole oxidase, the organism was cultured in 50 or 500 ml of media (in 250 ml or 2.8 L nominal volume flasks, respectively) containing minimal salts, succinate and 0.02% indole at 30° C. with rotary shaking (200 rpm).
as §1

[6] = tested on: Strain WW2; assay: Induction and sustaining of indole oxidation activity in growing cultures (oxygen uptake with indole); format: cell-based, Pseudomonas putida; settings: for Oxygen Uptake Rate, Rate 3 h After Re-Addition: re-addition (indole 0.2 g/l and/or succinate 2 g/l) to 4 h indole-induced cells, measured 7 h after initial induction
From the text: Several methods were examined to induce cultures of strain Pseudomonas putida WW2 for indole oxidation during growth. These included growing the strain in MSB containing 0.2% succinate with: (i) a single addition of 0.02% indole and 0.2% succinate during late log phase; (ii) indole provided in the vapor phase, during growth, from a small cloth bag containing indole crystals suspended above the surface of the medium; or (iii) both indole vapor during growth and direct addition of 0.02% indole and 0.2% succinate during late log phase.
as §2

[7] = substrate 0.3 mM, indole = 100%

Row | SMILES | Oxygen Uptake ([1]; substrate 0.3 mM) [O2 %/min/ODU] | Relative % (oxygen uptake rate) [1, 7] [%] | Relative % (oxygen uptake rate) [4] [%] | Oxygen Uptake [4] [O2 %/min/ODU] | also measured
1 | Brc1ccc2[nH]ccc2c1 [5-Br-Indole] | 0 | 0 | – | – | –
2 | Oc1cccc2[nH]ccc12 [4-OH-Indole] | 2.5 | – | – | – | Relative % (oxygen uptake rate) [1]: 17%
3 | C1=Cc2ccccc2C1 [indene] | – | – | – | – | 2-indanone, single detectable product, share of total ion current ([2]; crude SCF with NADPH, GC/MS): approximately 20%
4 | COc1ccc2[nH]ccc2c1 [5-MeO-Indole] | 1 | – | – | – | Relative % (oxygen uptake rate) [1]: 7%
5 | O=S(=O)([O-])[O-].O=S(=O)([O-])[O-].[Fe+2].[NH4+].[NH4+] [Fe^++, Fe(NH4)2SO4] | – | – | – | – | effect of added cofactor on activity [3]: stimulatory effect
6 | c1ccc2ccccc2c1 [Naphthalene] | – | – | 9 | 1.1 | Relative % (oxygen uptake rate) ([4]; listed as naphthalene): 9%; support of growth as carbon source (words) [5]: did not support growth; support of growth as carbon source (words) ([5]; listed as naphthalene): not to support growth; activity of the enzyme with the substrate [1]: very low activity
7 | Nc1ccccc1C(=O)O [Anthranilate, Anthranilic acid] | – | – | <1 | 0.6 | stimulation of oxygen uptake rate ([4]; whole resting cells): no significant stimulation
8 | Cc1cc2nc3c(=O)[nH]c(=O)nc-3n(C[C@H](O)[C@H](O)[C@H](O)COP(=O)(O)OP(=O)(O)OC[C@H]3O[C@@H](n4cnc5c(N)ncnc54)[C@H](O)[C@@H]3O)c2cc1C [FAD, flavin adenine dinucleotide] | – | – | – | – | stimulation of activity by cofactor added to the assay [3]: 3 fold
9 | c1ccc2occc2c1 [2,3-Benzofuran] | 0 | 0 | 30 | 3.5 | –
10 | Cc1cccc2cc[nH]c12 [7-Me-Indole] | 12.5 | 86 | 39 | 4.6 | –
11 | Cc1cc2nc3c(=O)[nH]c(=O)nc-3n(C[C@H](O)[C@H](O)[C@H](O)COP(=O)(O)O)c2cc1C [FMN] | – | – | – | – | effect of added cofactor on activity [3]: no effect
12 | Fc1ccc2[nH]ccc2c1 [5-F-Indole, 5-fluoroindole] | 13.5 | 93 | 50 | 5.9 | –
13 | c1ccc2[nH]ccc2c1 [Indole] | 14.5 | 100 | 100 | 11.8 | Oxygen Uptake Rate, Rate After 4 h Induction with Indole ([6]; induced with indole 0.2 g/l at 16 h growth, before re-addition): 14.4 O2 %/min/ODU and 13.3 O2 %/min/ODU and 14.1 O2 %/min/ODU and 12.1 O2 %/min/ODU; Oxygen Uptake Rate, Rate 3 h After Re-Addition [6]: 13.8 O2 %/min/ODU; support of growth as carbon source (words) [5]: good carbon source; concentration above which toxic ([5]; liquid culture): exceeded 400 mg/L; conversion of indole to indigo ([2]; 4.0 mM NADPH as electron donor, from absorption at 610 nm in DMF): 20%
14 | Clc1ccc2cc[nH]c2c1 [6-Cl-Indole] | 7 | 48 | – | – | –
15 | Cc1cccc2[nH]ccc12 [4-Me-Indole] | 1 | 7 | – | – | –
16 | c1ccc2sccc2c1 [Thianaphthene] | 1 | 7 | 26 | 3.1 | –
17 | Oc1ccc2[nH]ccc2c1 [5-OH-Indole] | 3.5 | 24 | – | – | –
18 | O=C1Nc2ccccc2C1=O [Isatin, 2,3-dioxoindole] | 0 | 0 | – | – | –
19 | NC(=O)C1=CN([C@@H]2O[C@H](COP(=O)(O)OP(=O)(O)OC[C@H]3O[C@@H](n4cnc5c(N)ncnc54)[C@H](OP(=O)(O)O)[C@@H]3O)[C@@H](O)[C@H]2O)C=CC1 [NADPH, nicotinamide adenine phosphate dinucleotide] | – | – | – | – | rate of indole removal relative to that observed with NADH ([2]; 4.0 mM NADPH instead of NADH, cell extract 0.57 mg/ml, pH 8): approximately 60%
20 | O=[N+]([O-])c1ccc2[nH]ccc2c1 [5-NO2-Indole] | 0 | 0 | – | – | –
21 | Clc1cccc2[nH]ccc12 [4-Cl-Indole] | 0 | 0 | – | – | –
22 | Cc1c[nH]c2ccccc12 [3-Me-Indole] | 2 | 14 | – | – | –
23 | O=C(O)CCC(=O)O [Succinate] | – | – | – | – | Oxygen Uptake Rate, Rate 3 h After Re-Addition [6]: 1.8 O2 %/min/ODU
24 | Clc1ccc2[nH]ccc2c1 [5-Cl-Indole] | 4 | 28 | – | – | –
25 | Oc1c[nH]c2ccccc12 [Indoxyl, 3-hydroxyindole] | – | – | 177 | 20.9 | increase in oxygen uptake rate ([4]; relative to indole): 1.7 fold
